Assay results from publication PMC3651166, “Differential Cytotoxic Activity of a Novel Palladium-Based Compound on Prostate Cell Lines, Primary Prostate Epithelial Cells and Prostate Stem Cells” (PLoS ONE, 2013).
Read-outs that look alike come from different tables or passages of the source.

Experiments:
Format in all cases: cell-based, human
BPH primary cells = experiment: MTS assay, primary cultures from benign prostate hyperplasia
From the text: (§1) Primary prostate epithelial cells were isolated from human tissue samples. The samples were collected with ethical permission from York District Hospital (York, UK) and Castle Hill Hospital (Cottingham, UK). Benign prostatic hyperplasia (BPH) and prostate cancer samples were obtained from TURP (transurethral resection of the prostate), radical prostatectomy (laparoscopic and open) and cystectomy operations. All patients gave written consent for their tissue to be used for research and all patient samples were anonymised. Permission was approved by the Local Research Ethical Committees, associated with York District Hospital and Castle Hill Hospital. Permission was administered by the Yorkshire and Humber Research Ethics Committee.
(§2) Prostate epithelial cells were cultured as previously described in stem cell media (SCM) consisting of keratinocyte serum-free media (KSFM) with bovine pituitary extract (BPE) and epidermal growth factor (EGF), glutamine, stem cell factor (SCF), granulocyte macrophage colony stimulating factor (GM-CSF), leukaemia inhibitory factor (LIF) and cholera toxin. Cells were grown with STO feeder cells (irradiated at 60 Gy) on collagen I-coated plates.
(§3) This assay was performed for the initial screening of the effect of the Pd complex on the cell lines and the whole cell population of primary cultures. The CellTiter 96® Aqueous One Solution Cell Proliferation Assay kit (G3580, Promega, Madison, WI, USA) was used and the manufacturer’s instructions were followed. Briefly, after treating cells that were seeded at a density of 5,000 cells per well in a 96-well plate in triplicate for a desired period (24 h, 48 h, 72 h), 20 µL of reagent was added to each well. Following 2.5 h incubation at 37°C, the absorbance was read at 485 nm using a plate reader (PolarStar Optima, BMG Labtech, UK). Percent viability was calculated using the formula (% Viability = [(Sample Absorbance/Control Absorbance)]×100.
(§4) MTS and ATP assays were performed in triplicate and data presented as the mean +/− standard deviation. IC50 values (Table 3 and Table 4) were calculated from graphs of transformed data following application of the nonlinear regression (curve fit) that represents the log(inhibitor) ‘v’ normalized response (GraphPad Prism software) (Supplementary Figures S1 and S2). For significance calculations, the Wilcoxon rank sum test was used (Sigmaplot). Flow cytometry analysis was carried out in triplicate and results are presented as an average with error bars indicating the standard error.

cleaved caspase-3 = experiment: Western blotting for apoptosis, cell lines
Experimental: (§5) Following drug treatment, cell lysates were harvested using Cytobuster Protein Extraction Reagent (71009, EMD Millipore, Darmstadt, Germany) with protease inhibitors (cOmplete, EDTA-free Protease Inhibitor Cocktail Tablets, Roche Applied Science, UK). 20 µg of protein extract were loaded on 12% SDS-PAGE gels and wet-transferred to a PVDF membrane. Antibodies used include: monoclonal anti-β-actin 1∶5000 (A5316, Sigma-Aldrich), anti-LC3B 1∶3000 (Ab51520, abcam), cleaved caspase-3 (Asp175) 1∶1000 (9661S, Cell Signaling Technology) and secondary antibodies were Rabbit anti-mouse-HRP 1∶10000 (P0260, Dako) and anti-rabbit IgG HRP-linked 1∶5000 (Cell Signaling Technology Inc. 7074S). Kaleidoscope protein marker was run on each gel (161-0324, Bio-Rad).

PCa Primary cells (Gl7) = experiment: MTS assay, primary cultures from prostate carcinoma Gleason 6/7
From the text: as §1, §2, §3, §4

LC3-II = experiment: Western blotting for autophagy, cell lines
Experimental: as §5

γH2AX nuclear foci = experiment: γH2AX immunofluorescence, DNA damage in primary cultures; conditions: 48 h
Experimental: γH2AX staining: Cells were seeded onto 8-well collagen I-coated chamber slides. […] After blocking of non-specific binding with 2% BSA in PBS with 1% goat serum for 1 hour at RT, primary antibody (anti-phospho-histone H2A.X (Ser139), clone JBW301, Millipore, Cat no. 05–636) at 1∶1000 dilution was added in 3% BSA in PBS at 4°C overnight followed by three washes in 0.5% BSA in PBS with 0.175% Tween 20. Following incubation with secondary antibody (Goat anti-mouse Alexa Fluor 568, Invitrogen, Cat no. A-11004) at 1∶1000 dilution for 45 min in 3% BSA in PBS and three more washes in the same washing buffer, the slides were mounted using Vectashield with DAPI (Vector Laboratories, Cat no. H-1200). LC3-B staining: Cells were treated as above then fixed with 4% paraformaldehyde, followed by an incubation in 0.3% Triton X-100. After blocking with 10% normal goat serum, cells were incubated in anti-LC3B 1∶200 (Ab51520, abcam) diluted in 0.1% Triton X-100 in PBS. […]
Since the mechanism of action of the Pd complex has not been fully characterized, the DNA-damaging effect was assessed. […] Nuclei with evidence of γH2AX nuclear foci, indicative of DNA damage, were counted on 10 randomly chosen fields at the highest (63x) magnification and the mean number of positively-stained nuclei was calculated. At least 100 cells per well were counted.

[1] = tested on: PNT1A, PNT2-C2, BPH-1, PC-3, LNCaP, P4E6; experiment: MTS assay, panel of six prostate cell lines; conditions: 100 µM, 72 h
Experimental: In this study, six different prostate cell lines (PNT1A, PNT2-C2, BPH-1, PC-3, LNCaP, P4E6) were used (Table 1). These cell lines encompass the spectrum of cellular differentiation status (basal, intermediate and luminal phenotypes), as well as the spectrum of normal, early cancer and late cancer. BPH-1 is derived from benign prostate hyperplasia (BPH), while PNT2-C2 and PNT1A are derived from normal prostate. PC-3, LNCaP and P4E6 are cancer cell lines. LNCaP, PNT2-C2, PNT1A were grown in RPMI medium with 10% FCS (foetal calf serum); PC-3 was grown in Ham’s F-12 medium with 7% FCS; BPH-1 was grown in RPMI medium with 5% FCS; P4E6 was grown in KSFM (Keratinocyte serum free medium) with 2% FCS. No antibiotics were used in any media. The cells were incubated at 37°C in a humidified atmosphere containing 5% CO2.
as §3, with “Briefly, after treating cells that were seeded at a density of 5,000 cells per well in a 96-well plate in triplicate for a desired period (24 h, 48 h, 72 h), 20 µL of reagent was added to each well.” left out, “Absorbance)]×100. […]” for “Absorbance)]×100.”

[PdCl(terpy)](sac)⋅2 H2O [Pd complex]
IC50 (BPH primary cells; BPH primary cells, sample 1608, 72 h, read-out: IC50): 5.97 µM | IC50 (BPH primary cells; BPH primary cells, sample 3108, 72 h, read-out: IC50): 7.33 µM | IC50 (BPH primary cells; BPH primary cells, sample 7611, 72 h, read-out: IC50): 6.97 µM | IC50 (BPH primary cells; BPH primary cells, sample 8109, 72 h, read-out: IC50): 14.4 µM | IC50 (BPH primary cells; average of BPH primary cells, 72 h, read-out: IC50 AVERAGE): 8.67 µM | reduction of cell viability compared to etoposide (BPH primary cells; benign samples, both at 25 µM, 72 h, median values): at least 5.6 fold | cleaved caspase-3 (apoptosis) (cleaved caspase-3; BPH-1, PNT2-C2 and P4E6 cells): clear induction of cleaved caspase-3 | cleaved caspase-3 (apoptosis) (cleaved caspase-3; LNCaP cells): only observed after treatment with 25 µM Pd complex | cleaved caspase-3 (apoptosis) (cleaved caspase-3; PC3 cells): no evidence of cleaved caspase-3 | IC50 (PCa Primary cells (Gl7); PCa primary cells (Gl7), sample 06211rb, 72 h, read-out: IC50): 11.1 µM | IC50 (PCa Primary cells (Gl7); PCa primary cells (Gl7), sample 06411lb, 72 h, read-out: IC50): 5.2 µM | IC50 (PCa Primary cells (Gl7); PCa primary cells (Gl7), sample 06411ra, 72 h, read-out: IC50): 3.78 µM | IC50 (PCa Primary cells (Gl7); PCa primary cells (Gl7), sample 06611lb, 72 h, read-out: IC50): 13.1 µM | IC50 (PCa Primary cells (Gl7); PCa primary cells (Gl7), sample 06711rb, 72 h, read-out: IC50): 8.24 µM | IC50 (PCa Primary cells (Gl7); PCa primary cells (Gl7), sample 07011la, 72 h, read-out: IC50): 5.36 µM | IC50 (PCa Primary cells (Gl7); PCa primary cells (Gl7), sample 07011lb, 72 h, read-out: IC50): 6.03 µM | IC50 (PCa Primary cells (Gl7); PCa primary cells (Gl7), sample 07311ra, 72 h, read-out: IC50): 5.37 µM | IC50 (PCa Primary cells (Gl7); PCa primary cells (Gl7), sample 22412, 72 h, read-out: IC50): 6.3 µM | IC50 (PCa Primary cells (Gl7); average of PCa primary cells (Gl7; Gleason 6/7), 72 h, read-out: IC50 AVERAGE): 7.16 µM | reduction of cell viability compared to etoposide (PCa Primary cells (Gl7); malignant samples, both at 25 µM, 72 h, median values): 10.66 fold | LC3-II expression (autophagy) (LC3-II; BPH-1, PNT2-C2 and P4E6 cells): clear increase in the expression of LC3-II | levels of LC3-I and LC3-II (LC3-II; LNCaP and PC3 cells, any treatment): did not change dramatically or in a dose-dependent fashion | level of DNA damage (γH2AX nuclear foci) (γH2AX nuclear foci; 3.12 µM): did not induce a significant level of DNA damage | level of DNA damage (γH2AX nuclear foci) (γH2AX nuclear foci; etoposide and Pd complex at the same dose, primary cultures from prostate carcinoma): same level of DNA damage | growth inhibition of all cell lines [1]: almost completely
